Values quoted from earlier work in patent publication US8791127B2, “Mucosal bioadhesive slow release carrier for delivering active principles” (BioAlliance Pharma, priority 2006, dated 2014).
≈ marks a conversion by molar mass, not a printed value.

System: HSV-1 virus
Conditions: towards HSV-1 virus

For Nc1nc2c(ncn2COCCO)c(=O)[nH]1 [acyclovir], the “minimal inhibitory concentration (MIC)” value is given as 0.0225 µg/mL (≈ 0.0999 µM).
